Broadly, the IC50 is the concentration that gives 50% inhibition. Low readings indicate higher potency, high ones lower potency.

Results on 3 compounds are retold here after BindingDB's records for patent US10519177 (Plexxikon Inc., 2019).

For this assay, the target named is T1, Bromodomain-containing protein 4 [1-477] (Human, UniProt O60885).
T1 construct: 1-477

On to `Cc1noc(C)c1-c1cnc2c(-c3ccc(C(=O)O)cc3)cn(CC3CC4(CCC4)C3)c2c1` [US10519177, Compound P-0603], for which the IC50 is < 1 µM.

For `Cc1noc(C)c1-c1cnc2c(I)cn(Cc3ccccc3C#N)c2c1` [US10519177, Compound P-0921], the IC50 is < 1 µM.

With `COC(=O)c1ccc(-c2c[nH]c3cc(-c4c(C)noc4C)cnc23)cc1` [US10519177, Compound P-1033], the IC50 is < 1 µM.
